Measurements from patent US8999935B2, “Treatment of osteoporosis in peri- and post-menopausal women with hepcidin” (New York University, priority 2009, dated 2015).

Assays:
[1] = tested on: MCF-7 cells; experiment: VEGF formation in MCF-7 cell cultures; type: cell-based; conditions: 24-hr treatment
Description: Due to the deficit of appropriate animal models that recapitulate estrogen and iron conditions in vivo, and the inherent difficulty of eliminating confounding variables with study in human subjects, applicants developed two cell culture models to test whether increase in body iron contributes to menopausal symptoms and diseases (FIG. 4). The concentration of 17β-estradiol (E2) were set at levels equivalent to breast tissue levels under pre-menopausal conditions (Parl F. F., “Estrogens, Estrogen Receptor and Breast Cancer,” Oxford: IOS Press, (2000), which is hereby incorporated by reference in its entirety). Ferritin levels were equal to 10% serum, given that the physiological upper limit of serum ferritin is 200 ng/ml. Twenty ng/ml of ferritin was used in the culture media. Transferrin was added in its wholly unsaturated form (apo-transferrin), or its fully 100% iron saturated (holo-transferrin), at 5 μg/ml, to the pre- and post-menopausal conditions, respectively. Serum-free alpha minimum essential medium (α-MEM) was used as the base medium for breast cancer MCF-7 cells, osteoblast progenitor C2C12 cells, and osteoclast progenitor Raw 264.7 cells. MCF-7 was supplemented with selenium (5 ng/ml) and insulin (5 μg/ml). C2C12 and Raw 264.7 cells were supplemented with bone morphorgenetic protein-2 (BMP-2) and receptor activator of nuclear factor kappa B ligand (RANKL) to stimulate their differentiation and maturation to ostoeblasts and osteoclasts, respectively. Epilife® basal medium was used for the culture of primary normal human epidermal keratinocytes (NHEK) cells.
E2, transferrin, and ferritin were analyzed separately in MCF-7 cell cultures to determine their relative contribution to alterations in VEGF levels.

[2] = tested on: C2C12 cells; experiment: C2C12 cell proliferation; type: cell-based, mouse; conditions: 3 and 5 days
Description: To investigate whether increased iron levels affect the balance between bone formation and bone resorption, mouse osteoblasts C2C12 and osteoclasts Raw 264.7 cells were cultured in the two distinct media. […] In other experiments, the iron chelator deferoxamine (DFO), promoted alkaline phosphatase production, whereas ferritin diminished it. […] To further search how increased iron affect osteoblasts, C2C12 cells were grown in the presence of E2 or iron over a period of 3 and 5 days. Cell proliferation was then measured.

[3] = tested on: mouse osteoblast C2C12 cells; experiment: Alkaline phosphatase (osteoblast differentiation) in C2C12 cells; type: cell-based
Description: FIGS. 18A-F show differences in alkaline phosphates (ALP) activities in mouse osteoblast C2C12 cells grown in medium only (FIG. 18A), with bone morphorgenetic protein-2 (BMP-2) (FIG. 18B), under the pre-menopausal (FIG. 18C), post-menopausal (FIG. 18D), with ferritin (FIG. 18E), and with deferoxamine (DFO) (FIG. 18F). DFO, an iron chelator, (10 μM) or ferritin alone (20 ng/mL) was used in the presence of BMP-2 at 50 ng/ml.
Due to the deficit of appropriate animal models that recapitulate estrogen and iron conditions in vivo, and the inherent difficulty of eliminating confounding variables with study in human subjects, applicants developed two cell culture models to test whether increase in body iron contributes to menopausal symptoms and diseases (FIG. 4). The concentration of 17β-estradiol (E2) were set at levels equivalent to breast tissue levels under pre-menopausal conditions (Parl F. F., “Estrogens, Estrogen Receptor and Breast Cancer,” Oxford: IOS Press, (2000), which is hereby incorporated by reference in its entirety). Ferritin levels were equal to 10% serum, given that the physiological upper limit of serum ferritin is 200 ng/ml. […]
To investigate whether increased iron levels affect the balance between bone formation and bone resorption, mouse osteoblasts C2C12 and osteoclasts Raw 264.7 cells were cultured in the two distinct media. […] Cell proliferation was then measured.

[4] = mice, single 50 μg intraperitoneal injection, for 3 days; cited from earlier work
[5] = tested on: CYP1B1; experiment: CYP1B1 mRNA induction in MCF-12A cells; type: cell-based, human; conditions: ferritin at as little as 10 ng/ml
Description: (§1) It was also investigated whether increased iron as a result of menopause affects estrogen metabolisms. It is known that 95% of serum E2 in premenopausal women is derived from ovarian secretion and subsequently distributed through the bloodstream in an endocrine fashion. Almost all of the circulating E2 in postmenopausal women is from extragonadal conversion of C19 steroid precursors, principally weak adrenal androgens (FIG. 26). The conversion occurs locally in tissues such as adipose and bone marrow and E2 acts in a paracrine fashion. […] The first step in the metabolism of estrogens is the hydroxylation catalyzed by cytochrome P450 enzymes such as CYP1A1 and CYP1B1, leading to the formation of 2-hydroxyl-E2 (2-OH-E2) and 4-OH-E2, respectively (Tsuchiya et al., “Cytochrome P450-mediated Metabolism of Estrogens and Its Regulation In Humans,” Cancer Leu 227, 115-24 (2005), which is hereby incorporated by reference in its entirety).

[6] = tested on: CYP19A1; experiment: CYP19A1 mRNA induction in MCF-12A cells; type: cell-based, human; conditions: ferritin at as little as 10 ng/ml
Description: as §1

[7] = tested on: CYP1A1; experiment: CYP1A1 mRNA induction in MCF-12A cells; type: cell-based, human; conditions: ferritin at as little as 10 ng/ml
Description: as §1

[8] = Effects of hepcidin on mice: serum iron and transferrin saturation after 8 weeks of i.p. treatment; type: in vivo; conditions: 1.5 mg/kg i.p. twice a week for 8 weeks, versus control mice or mice treated with DFO
Description: Human body has many ways to absorb, transfer, and store iron but has no effective ways to excrete it (Andrews N. C., “Disorders of Iron Metabolism,” N Engl J Med 341:1986-95 (1999), which is hereby incorporated by reference in its entirety). Menstruation, which can get rid of iron in young premenopausal women, is not optional in older postmenopausal women. Therefore, hepcidin and deferoxamine (DFO), a FDA-approved iron chelator, were tested to see whether hepcidin or DFO can inhibit iron absorption and decrease body iron levels. After overnight fasting, mice were injected intra-peritoneally (i.p.), twice a week, with hepcidin at 1.5 mg/kg, DFO at 400 mg/kg, or saline (control) with 10 mice per group. After 8 weeks consecutive treatment, mice were sacrificed and blood were collected by heart puncture. Serum samples were used for measurements of serum iron and transferrin saturation.

With `C[C@]12CC[C@@H]3c4ccc(O)cc4CC[C@H]3[C@@H]1CC[C@@H]2O` [E2, 17β-estradiol] the VEGF formation ([1]; various concentrations) was “some increase”, the cell proliferation [2] was “did not increase” and the “osteoblast differentiation, as measured by alkaline phosphates activity” value ([3]; C2C12 cells) was “slightly stimulated”.

In the case of “Asp-Thr-His-Phe-Pro-Ile-Cys-Ile-Phe-Cys-Cys-Gly-Cys-Cys-His-Arg-Ser-Lys-Cys-Gly-Met-Cys-Cys-Lys-Thr (DTHFPICIFCCGCCHRSKCGMCCKT; listed as Homo sapiens) [human hepcidin]”, the “fall in serum iron” value [4] is listed as 70%.

For “apo-transferrin: transferrin in its wholly unsaturated form, without iron in it”, the VEGF formation ([1]; various concentrations) was “no effect”.

In the case of ferritin, the “CYP1B1 mRNA levels” value [5] was “significantly increased”, the VEGF formation ([1]; various concentrations) was “significantly decreases” and the “CYP19A1 mRNA levels” value [6] was “not”. For the same compound, the “CYP1A1 mRNA levels” value [7] was “significantly increased” and the alkaline phosphatase production ([3]; C2C12 cells with BMP-2 at 50 ng/ml, DFO 10 μM, ferritin 20 ng/mL) was “diminished”.

With “hepcidin: peptide hormone, principal regulator of iron homeostasis; binds ferroportin (DTHFPICIFCCGCCHRSKCGMCCKT; listed as Homo sapiens)” the “levels of serum iron” value [8] was “significantly lower” and the transferrin saturation [8] was “significantly lower”.

In the case of “transferrin: iron transport protein with two binding sites for iron, tested at different iron saturation”, the VEGF formation ([1]; transferrin 5 μg/ml at various iron saturation levels) was “no effect”.
